Like-named read-outs stand apart in the source and are kept apart here.

8 compounds from patent publication US7799791B2, “Tetrahydrofuro(3,2-B) pyrrol-3-one derivatives as inhibitors of cysteine proteinases” (Amura Therapeutics Limited, priority 2007, dated 2010) can be followed below.

The target of series [1] is T1, Human recombinant cathepsin K (Homo sapiens, UniProt P43235).
T1 construct: purchased B. Turk, Josef, Stefan Institute, Ljubljana, Slovenia
T1 sequence (P43235 115-329): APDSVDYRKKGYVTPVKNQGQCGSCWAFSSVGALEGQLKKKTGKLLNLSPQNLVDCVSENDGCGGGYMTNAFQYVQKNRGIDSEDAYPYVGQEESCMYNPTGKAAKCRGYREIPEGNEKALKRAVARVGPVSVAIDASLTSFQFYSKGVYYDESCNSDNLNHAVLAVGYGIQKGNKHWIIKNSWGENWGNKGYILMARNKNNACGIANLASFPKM
The series can be described thus: In vitro cathepsin Ki inhibition measurements. The series is classed as biochemical. The method, then: Stock solutions of substrate or inhibitor were made up to 10 mM in 100% dimethylsulfoxide (DMSO) (Rathburns, Glasgow, U.K.) and diluted as appropriately required. In all cases the DMSO concentration in the assays was maintained at less than 1% (vol./vol.). The equilibrium inhibition constants (Ki^ss) for each compound were measured under steady-state conditions monitoring enzyme activity as a function of inhibitor concentration. The values were calculated on the assumption of pure competitive behaviour (Cornish-Bowden, A. Fundamentals of enzyme kinetics Portland Press; 1995, 93-128.). Human recombinant cathepsin K (0.25 nM final; B. Turk, Josef, Stefan Institute, Ljubljana, Slovenia), was routinely assayed in 100 mM sodium acetate; pH 5.5 containing 1 mM EDTA, 10 mM L-cysteine and 1.8 μM Z-Leu-Arg-AMC ([S]=KM).
The apparent inhibition constant (Ki) for each compound was determined on the basis that inhibition was reversible and occurred by a pure-competitive mechanism. The Ki values were calculated, from the dependence of enzyme activity as a function of inhibitor concentration, by direct regression analysis (Prism v 3.02) using Equation 2 (Comish-Bowden, A., 1995.).
In situations where the apparent dissociation constant (Ki^app) approached the enzyme concentrations, the Ki^app values were calculated using a quadratic solution in the form described by Equation 3 (Morrison, J. F. Trends Biochem. Sci., 7, 102-105, 1982; Morrison, J. F. Biochim. Biophys. Acta. 185, 269-286, 1969; Stone, S. R. and Hofsteenge, J. Biochemistry, 25, 4622-4628, 1986).
Curves were fitted by non-linear regression analysis (Prism) using a fixed value for the enzyme concentration. Equation 4 was used to account for the substrate kinetics, where ‘Ki’ is the inhibition constant, ‘[So]’ is the initial substrate concentration and ‘KM^app’ is the apparent macroscopic binding (Michaelis) constant for the substrate (Morrison, 1982).

The nature of series [2]: Plasma incubations (human plasma stability). The series is classed as in vitro ADME. The settings on record: 37° C., 25 μM, percent remaining at 1 hour.
Procedure: Human and rat plasma were purchased from Innovative Research Inc. (Southfield. Mich., USA). […] Aliquots were removed at 2 and 60 minutes and quenched with an equal volume of cold acetonitrile. After mixing vigorously, the precipitated protein matter was removed by filtration (Multiscreen Solvinert filter plates, Millipore, Bedford, Mass., USA) and the filtrate analysed by reverse phase HPLC with mass spectrometric detection, using single ion monitoring of the [M+H]^+ species. Metabolic turnover was determined by comparison of peak areas from the ion chromatograms of the parent compound at 2 and 60 minutes and expressed as percent remaining at 1 hour.
[3] abbreviates: Table 1, read-out: In vitro Ki (nM) vs Cath K.
The mark [4] stands for this setting: prior art WO-A-02057270 examples, Table 2, read-out: Ki (nM) vs Human Cathepsin K.

Consider `CO[C@H]1CN(C(=O)[C@@H](NC(=O)c2ccc(-c3csc(N4CCN(C)CC4)n3)cc2)C2CCCC2)[C@@H]2C(=O)CO[C@H]12` [Example 1, N-((S)-1-cyclopentyl-2-((3aS,6S,6aS)-6-methoxy-3-oxodihydro-2H-furo[3,2-b]pyrrol-4(5H,6H,6aH)-yl)-2-oxoethyl)-4-(2-(4-methylpiperazin-1-yl)thiazol-4-yl)benzamide], for which the inhibitory constant (Ki) in series [1] (setting [3]) was 1.4 nM. Further, the “Human Plasma Stability % rem. @ 1 h” value in series [2] was 100%.

Consider `CO[C@@H]1CN(C(=O)[C@@H](NC(=O)c2ccc(-c3csc(N4CCN(C)CC4)n3)cc2)C2CCCC2)[C@@H]2C(=O)CO[C@@H]21` [Example 2, N-((S)-1-cyclopentyl-2-((3aS,6R,6aS)-6-methoxy-3-oxodihydro-2H-furo[3,2-b]pyrrol-4(5H,6H,6aH)-yl)-2-oxoethyl)-4-(2-(4-methylpiperazin-1-yl)thiazol-4-yl)benzamide], for which the inhibition constant Ki in series [1] (setting [3]) came out at 1.9 nM. The “Human Plasma Stability % rem. @ 1 h” value in series [2] is 98.2%.

Regarding `CC(C)C[C@H](NC(=O)c1ccc(-c2csc(N3CCN(C)CC3)n2)cc1)C(=O)N1CC[C@H]2OCC(=O)[C@H]21` [Example 3, N-((S)-4-methyl-1-oxo-1-((3aS,6aR)-3-oxodihydro-2H-furo[3,2-b]pyrrol-4(5H,6H,6aH)-yl)pentan-2-yl)-4-(2-(4-methylpiperazin-1-yl)thiazol-4-yl)benzamide], the inhibition constant Ki in series [1] (setting [3]) amounted to 1.7 nM. In addition, the “Human Plasma Stability % rem. @ 1 h” value in series [2] is on record as 92.6%.

With `CN1CCN(c2nc(-c3ccc(C(=O)N[C@@H](CC(C)(C)C)C(=O)N4CC[C@H]5OCC(=O)[C@H]54)cc3)cs2)CC1` [Example 4, N-((S)-4,4-dimethyl-1-oxo-1-((3aS,6aR)-3-oxodihydro-2H-furo[3,2-b]pyrrol-4(5H,6H,6aH)-yl)pentan-2-yl)-4-(2-(4-methylpiperazin-1-yl)thiazol-4-yl)benzamide], the Ki in series [1] (setting [3]) worked out at 1.7 nM. Besides, the “Human Plasma Stability % rem. @ 1 h” value in series [2] came to 91.9%.

`CN1CCN(c2nc(-c3ccc(C(=O)N[C@H](C(=O)N4CC[C@H]5OCC(=O)[C@H]54)C4CCCC4)cc3)cs2)CC1` [Example 5, N-((S)-1-cyclopentyl-2-oxo-2-((3aS,6aR)-3-oxodihydro-2H-furo[3,2-b]pyrrol-4(5H,6H,6aH)-yl)-2-oxoethyl)-4-(2-(4-methylpiperazin-1-yl)thiazol-4-yl)benzamide]: the inhibition constant (Ki) in series [1] (setting [3]) came out at 1.3 nM. For the same compound, the “Human Plasma Stability % rem. @ 1 h” value in series [2] was 82.5%.

Turning to `CC(C)C[C@H](NC(=O)c1ccc(C(C)(C)C)cc1)C(=O)N1CC[C@H]2OCC(=O)[C@H]21` [Prior art compound 23, reference compound], the Ki in series [1] (setting [3]) amounted to 87.4 nM. Also, in series [2], the “Human Plasma Stability % rem. @ 1 h” value amounted to 75%.

As to “N-((S)-1-cyclopentyl-2-((3aS,6R,6aS)-6-methoxy-3-oxodihydro-2H-furo[3,2-b]pyrrol-4(5H,6H,6aH)-yl)-2-oxoethyl)-4-(2-(4-methylpiperazin-1-yl)thiazol-4-yl)benzamide [Example 2]”, in series [1] (setting [4]), the Ki is over 50000 nM.

For “N-((S)-4-methyl-1-oxo-1-((3aS,6aR)-3-oxodihydro-2H-furo[3,2-b]pyrrol-4(5H,6H,6aH)-yl)pentan-2-yl)-4-(2-(4-methylpiperazin-1-yl)thiazol-4-yl)benzamide [Example 3]”, the inhibitory constant (Ki) in series [1] (setting [4]) was over 4000 nM.

Usually Ki stands for the dissociation constant of the complex between target and ligand, obtained from inhibition or displacement.
